According to EP1229025A1, “NOVEL QUINAZOLINE DERIVATIVES” (Japan Energy Corporation, priority 1999, dated 2001):

Assays:
Assay type in all cases: cell-based
IL-4 production = IL-4 production inhibiting test in OVA-stimulated spleen cells of immunised mouse (ELISA); settings: 72 h, spleen cells of OVA-immunised BALB/c-mouse, OVA 0.5 mg/ml, 3 days
Method: (§1) Example 146: IL-4 and IL-5 production inhibiting test
(§2) A 6-weeks-old BALB/c-mouse (Nippon Charles River) was bred preparatively for 1 week and given at the day 0 and day 14 intraperitoneal injection of 100 µl PBS to give immunity which PBS contained 0.1 mg/ml of Ovalbumin(OVA) and 40 mg/ml of aluminum hydroxide. At the day 21 the spleen was taken out from the mouse. The spleen was dissected with a pincette in cooled PBS, passed through a mesh and subjected to centrifugation at 4 °C at 1,500 rpm for 5 minutes. The cells was added with 5 ml of 0.2% NaCI to destroy erythrocytes, and then was made isotonic by adding 5 ml of 1.6% of NaCl. After centrifugation at 4 °C, 1,500 rpm for 5 minutes, the cells were washed twice with 10 ml ofRPMI1640 culture medium. The obtained spleen cells were suspended in cRPMI1640 medium, and the number of the cells was measured by Tuerk dying. After being adjusted to 1 × 10^7 cells/ml, the cells were planted in 100 µl/well on a 96-well plate (FALCON). The cells were cultured at 37 °C under 5% CO2 atmosphere for about 4 hours. OVA was prepared to 10 mg/ml with cRPMI1640 culture medium and subjected to sterile filtration. The 10 mg/ml OVA was diluted with cRPMI1640 culture medium to give 1 mg/ml OVA. A compound to be tested which was dissolved in DMSO in at 1,000-fold concentration was diluted up to 500-fold with cRPMI1640 culture medium containing 1 mg/ml OVA and added in 100 µl/well to the cells which had been planted on the previously mentioned 96-well plate (final concentration of OVA: 0.5 mg/ml). As the controls, the solutions were made by diluting DMSO of the same volume as with the test compounds with cRPMI1640 culture medium containing 1 mg/ml OVA, and they were added to the cells. These cells were cultured at 37 °C under 5%CO2 atmosphere for 3 days. IL-4 and IL-5 in the culture supernatants after 3 days were quantitatively determined by ELISA method. IL-4 and IL-5 were quantitatively determined using IL-4 Development Kit (Genzyme Techne) and mouse IL-5 MiniKit (ENDOGEN), respectively. The production inhibiting rates of each tested compound against IL-4 are shown in Table 22, those against IL-5 in Table 23.

IL-5 production = IL-5 production inhibiting test in OVA-stimulated spleen cells of immunised mouse (ELISA); settings: 72 h, spleen cells of OVA-immunised BALB/c-mouse, OVA 0.5 mg/ml, 3 days
Method: as §1, §2

TNF-α production = TNF-α production inhibiting test using human PBMC (LPS stimulus, ELISA); settings: LPS 10 ng/ml, 16 hours, ELISA of culture supernatants
Method: Example 145: TNF-α production inhibiting test using human PBMC (peripheral blood mononuclear cells)
Preparation of human PBMC
The blood of a healthy person was taken with a vacuum blood-collecting tube (Nipro neotube) and diluted up to two-fold with physiological saline (Otsuka Pharmaceuticals). To the diluted blood was added 6% dextran T-500 (prepared after dissolution in physiological saline (Otsuka Pharmaceuticals) and sterilization with an autoclave) so as to make a final concentration of 1%. The solution was subjected to tumble mixing and allowed to stand at room temperature for 30 minutes to precipitate the erythrocytes. The supernatant was collected and subjected to centrifugation at 20 °C and at 1,500 rpm for 10 minutes. The cells were suspended in 3 ml of RPMI1640 culture medium (Asahi Technogllas) and overlaid on the solution surface of 3 ml Lymphoprep (NYCOMED). Further, with 1.5 ml of RPMI1640 culture medium being added to the tube which had contained the cell suspension liquid, the cells attached to the tube, which had remained uncollected, were suspended for collection and overlaid on the Lymphoprep previously mentioned. This operation was repeated again. After centrifugation at 20 °C and at 2,000 rpm for 30 minutes, there was collected a fraction of peripheral blood mononuclear cells present in the boundary surface between the Lymphoprep and the RPMI1640 culture medium. The cells were washed twice with 10 ml RPMI1640 culture medium to remove the Lymphoprep and then suspended in a RPMI1640 culture medium added with 10% bovine fetal serum (IRVINE SCIENTIFIC), 100 U/ml penicillin and 100 µg/ml streptomycin (hereinafter referred to as cRPMI1640 culture medium). The number of the cells was measured by Tuerk dying, and the cells, after adjustment to 3 × 10^6 cells/ml, were planted in 100 µl/well on a 96-well plate (FALCON). The cells were cultured at 37 °C under 5%CO2 atmosphere for about 5 hours.
Induction of TNF-α production by LPS stimulus
LPS (E.coli 0111:B4, DIFCO), which had been prepared to 10 mg/ml with water and kept at -20, was diluted to 100 µg/ml with cRPMI1640 culture medium and subjected to sterile filtration. The 100 µg/ml LPS was diluted with cRPMI1640 culture medium to prepare 20 ng/ml LPS. A compound to be tested which was dissolved in DMSO at 1,000-fold concentration was diluted to 500-fold with cRPMI1640 culture medium containing 20 ng/ml LPS and added in 100 µl/well to the cells which had been planted on the previously mentioned 96-well plate (final concentration of LPS: 10 ng/ml). For use as the control group, the solutions were made by diluting DMSO of the same volume as in the test compounds with cRPMI1640 culture medium containing 20 ng/ml LPS, and they were added to the cells. These cells were cultured at 37 °C under 5%CO2 atmosphere for 16 hours.
Determination of TNF-α activity (ELISA method)
To the 96-well plate the mouse anti-human TNF-α antibody (prepared to 2 µg/ml with Coating buffer*^1) was added so as to make 100 µl/well and allowed to stand at 4 °C overnight. After 5-times washing with Wash buffer*^2 (300µl/well), the Blocking buffer*^3 was added to the solutions, which were allowed to stand 37 °C for 2 hours. The culture supernatants were diluted up to 5-fold in the plate (supernatant 20 µl being added to 80 µl of cRPMI1640 culture medium). Simultaneously, for using for a calibration curve, a series of dilution of recombinant human TNF-α was prepared arid allowed to stand 37 °C for 1 hour. After 5-times washing with Wash buffer (300 µl /well), biotinylated rabbit anti-human TNF-α antibody (prepared to 0.25 µg/ml with Antibody diluent*^4) was added so as to make 100 µl /well and allowed to stand at 37 °C for 1 hour. After 5-times washing with Wash buffer (300 µl /well), Streptavidin-Horseradish peroxidase(prepared to 1:4000 with Antibody diluent) was added to make 100 µl /well and allowed to stand at 37 °C for 15 minutes. […]

SMILES	IC50 (IL-4 production) [nM]	IC50 (IL-5 production) [nM]	IC50 (TNF-α production) [nM]
O=[N+]([O-])c1cc2c(NCc3cccs3)ncnc2cc1N1CCNCC1 [Example 48, 6-nitro-7-(piperazin-1-yl)-4-[(2-thienyl)methylamino]quinazoline]	100	900	
O=[N+]([O-])c1cc2c(NCc3ccco3)ncnc2cc1N1CCNCC1 [Example 51, 4-[(2-furyl)methylamino]-6-nitro-7-(piperazin-1-yl)quinazoline]	100		
O=[N+]([O-])c1cc2c(NCCCc3ccc(F)cc3)ncnc2cc1N1CCNCC1 [Example 126, 4-[3-[(4-fluoro)phenyl]propylamino]-6-nitro-7-(piperazin-1-yl)quinazoline]			700
O=[N+]([O-])c1cc2c(NCCc3ccc(Cl)cc3)ncnc2cc1N1CCNCC1 [Example 1, 4-[2-(4-chlorophenyl)ethylamino]-6-nitro-7-(piperazin-1-yl)quinazoline]			800
Fc1cc2c(NCCCc3ccc4c(c3)OCO4)ncnc2cc1N1CCNCC1 [Example 120, 6-fluoro-4-[3-[(3,4-methylenedioxy)phenyl]propylamino]-7-(piperazin-1-yl)quinazoline]			2000
O=[N+]([O-])c1cc2c(NCCc3ccc(Br)cc3)ncnc2cc1N1CCNCC1 [Example 72, 4-[2-(4-bromophenyl)ethylamino]-6-nitro-7-(piperazin-1-yl)quinazoline]			400
O=[N+]([O-])c1cc2c(NCCc3ccc(O)cc3)ncnc2cc1N1CCNCC1 [Example 80, 4-[2-(4-hydroxyphenyl)ethylamino]-6-nitro-7-(piperazin-1-yl)quinazoline]			2500
CCOC(=O)c1ccc(CNc2ncnc3cc(N4CCNCC4)c([N+](=O)[O-])cc23)cc1 [Example 129, 4-[(4-ethoxycarbonyl)benzylamino]-6-nitro-7-(piperazin-1-yl)quinazoline]	100	1700	200
O=[N+]([O-])c1cc2c(NC3CCN(Cc4ccccc4)CC3)ncnc2cc1N1CCNCC1 [Example 86, 4-[(1-benzyl-4-piperidyl)amino]-6-nitro-7-(piperazin-1-yl)quinazoline]			6400
O=[N+]([O-])c1cc2c(NCCc3ccncc3)ncnc2cc1N1CCNCC1 [Example 58, 6-nitro-7-(piperazin-1-yl)-4-[2-(4-pyridyl)ethylamino]quinazoline]			3500
O=[N+]([O-])c1cc2c(NCc3cccc(F)c3)ncnc2cc1N1CCNCC1 [Example 62, 4-(3-fluorobenzylamino)-6-nitro-7-(piperazin-1-yl)quinazoline]	100	1400	300
Fc1cc2c(NCc3ccc4c(c3)OCCO4)ncnc2cc1N1CCNCC1 [Example 121, 4-[(3,4-ethylenedioxy)benzylamino]-6-fluoro-7-(piperazin-1-yl)quinazoline]			2500
Fc1ccc(CCCNc2ncnc3cc(N4CCNCC4)c(F)cc23)cc1 [Example 119, 6-fluoro-4-[3-[(4-fluoro)phenyl]propylamino]-7-(piperazin-1-yl)quinazoline]			2300
O=[N+]([O-])c1cc2c(NCc3ccc(C(F)(F)F)cc3)ncnc2cc1N1CCNCC1 [Example 63, 6-nitro-7-(piperazin-1-yl)-4-[4-(1,1,1-trifluoiomethyl)benzylamino]quinazoline]			1600
O=[N+]([O-])c1cc2c(NCCc3cccc(Cl)c3)ncnc2cc1N1CCNCC1 [Example 71, 4-[2-(3-chlorophenyl)ethylamino]-6-nitro-7-(piperazin-1-yl)quinazoline]			600
O=[N+]([O-])c1cc2c(NCc3ccc(F)cc3)ncnc2cc1N1CCNCC1 [Example 25, 4-(4-fluorobenzylamino)-6-nitro-7-(piperazin-1-yl)quinazoline]			400
O=CN1CCN(c2cc3ncnc(NCCc4ccc(Cl)cc4)c3cc2[N+](=O)[O-])CC1 [Example 6, 4-[2-(4-chlorophenyl)ethylamino]-7-(4-formylpiperazin-1-yl)-6-nitroquinazoline]			2500
O=[N+]([O-])c1cc2c(NCCc3cccs3)ncnc2cc1N1CCNCC1 [Example 42, 6-nitro-7-(piperazin-1-yl)-4-[2-(2-thienyl)ethylamino]quinazoline]			500
O=[N+]([O-])c1cc2c(NCc3ccc(F)c(F)c3)ncnc2cc1N1CCNCC1 [Example 128, 4-[(3,4-difluoro)benzylamino]-6-nitro-7-(piperazin-1-yl)quinazoline]			700
O=[N+]([O-])c1cc2c(NCc3ccc4c(c3)OCCO4)ncnc2cc1N1CCNCC1 [Example 130, 4-[(3,4-ethylenedioxy)benzylamino]-6-nitro-7-(piperazin-1-yl)quinazoline]			2500
COc1ccc(CNc2ncnc3cc(N4CCNCC4)c([N+](=O)[O-])cc23)cc1 [Example 67, 4-(4-methoxylbenzylamino)-6-nitro-7-(piperazin-1-yl)quinazoline]			300
NCC1CCN(c2cc3ncnc(NCCc4ccc(Cl)cc4)c3cc2[N+](=O)[O-])CC1 [Example 9, 7-(4-aminomethylpiperidin-1-yl)-4-[2-(4-chlorophenyl)ethylamino]-6-nitroquinazoline]			1300
Fc1cc2c(NCCc3ccc4c(c3)OCO4)ncnc2cc1N1CCNCC1 [Example 118, 6-fluoro-4-[2-[(3,4-methylenedioxy)phenyl]ethylamino]-7-(piperazin-1-yl)quinazoline]			2200
COc1ccccc1CNc1ncnc2cc(N3CCNCC3)c([N+](=O)[O-])cc12 [Example 65, 4-(2-methoxylbenzylamino)-6-nitro-7-(piperazin-1-yl)quinazoline]			1200
